Here are results for two compounds from paper PMC8842277, “Highly Antiproliferative Latonduine and Indolo[2,3-c]quinoline Derivatives: Complex Formation with Copper(II) Markedly Changes the Kinase Inhibitory Profile” (Journal of Medicinal Chemistry, 2022).

Holding throughout (assay): MTT antiproliferative assay
Common to all, as to format: cell-based

Test [1] has as its system doxorubicin-sensitive Colo205 human colon adenocarcinoma cells. Particulars: for selectivity factor (SF) Colo205: IC50 MRC-5/IC50 Colo205; for IC50: MTT, 72 h. Here is the method:
(§1) The in vitro antiproliferative activity of the compounds was tested in doxorubicin-sensitive Colo205 and multidrug-resistant Colo320 human colon adenocarcinoma cell lines as well as in normal human embryonal lung fibroblast cells (MRC-5) by MTT assay.
(§2) Human colonic adenocarcinoma cell lines Colo 205 doxorubicin-sensitive (ATCC-CCL-222) and Colo 320/MDR-LRP multidrug resistant over-expressing ABCB1 (MDR1)-LRP (ATCC-CCL-220.1) were purchased from LGC Promochem, Teddington, UK. The cells were cultured in an RPMI 1640 medium supplemented with 10% heat-inactivated fetal bovine serum, 2 mM L-glutamine, 1 mM Na-pyruvate, and 10 mM HEPES. The semi-adherent human colon cancer cells were detached with Trypsin-Versene (EDTA) solution for 5 min at 37 °C. An MRC-5 human embryonal lung fibroblast cell line (ATCC CCL-171) was purchased from LGC Promochem, Teddington, UK. The cells were cultured in Eagle’s minimal essential medium (EMEM, containing 4.5 g L^–1 glucose) supplemented with a non-essential amino acid mixture, a selection of vitamins, and 10% heat-inactivated fetal bovine serum. The HCT-116 colon carcinoma cells and isogenic p53-knock-out subline were a gift of Prof. Bert Vogelstein from The Johns Hopkins Oncology Center. Cells were cultured in McCoy’s 5A medium supplemented with 10% heat-inactivated fetal bovine serum and 4 mM L-glutamine. All cell lines were incubated at 37 °C, in a 5% CO2, 95% air atmosphere.
(§3) MRC-5 non-cancerous human embryonic lung fibroblast and human colonic adeno-carcinoma cell lines (doxorubicin-sensitive Colo 205 and multidrug resistant Colo 320 colonic adenocarcinoma cells) were used to determine the effect of compounds on cell growth. The effects of increasing concentrations of compounds on cell growth were tested in 96-well flat-bottomed microtiter plates. The compounds were dissolved in DMSO and stock solutions of 10 mM were prepared. These were further diluted in the appropriate cell culture medium by twofold serial dilution starting from 100 or 10 μM for the compounds. The adherent human embryonal lung fibroblast cells were cultured in 96-well flat-bottomed microtiter plates using EMEM supplemented with 10% heat-inactivated fetal bovine serum. The density of the cells was adjusted to 1 × 10^4 cells in 100 μL per well, the cells were seeded for 24 h at 37 °C, 5% CO2, then the medium was removed from the plates containing the cells, and the dilutions of compounds previously made in a separate plate were added to the cells in 200 μL. In the case of the colonic adenocarcinoma cells, the twofold serial dilutions of compounds were prepared in 100 μL of RPMI 1640, horizontally. The semi-adherent colonic adenocarcinoma cells were treated with Trypsin-Versene (EDTA) solution. They were adjusted to a density of 1 × 10^4 cells in 100 μL of RPMI 1640 medium and were added to each well, with the exception of the medium control wells. The final volume of the wells containing compounds and cells was 200 μL. The culture plates were incubated at 37 °C for 72 h; at the end of the incubation period, 20 μL of MTT (thiazolyl blue tetrazolium bromide, Sigma) solution (from a stock solution of 5 mg mL^–1) was added to each well. After incubation at 37 °C for 4 h, 100 μL of sodium dodecyl sulfate (SDS) (Sigma) solution (10% in 0.01 M HCI) was added to each well and the plates were further incubated at 37 °C overnight. Cell growth was determined by measuring the optical density (OD) at 540/630 nm with a Multiscan EX ELISA reader (Thermo Labsystems, Cheshire, WA, USA). […] Curves were fitted by GraphPad Prism software[57] using the sigmoidal dose–response model (comparing variable and fixed slopes). The IC50 values were obtained from at least three independent experiments. Tests in adherent HCT-116 colon carcinoma cells and an isogenic p53-knock-out subline thereof were performed in a similar manner, with 1.5 × 10^3 cells seeded in 100 μL of McCoy’s 5A medium (Sigma-Aldrich) per well. […]

Test [2] has as its system multidrug-resistant Colo320 human colon adenocarcinoma cells. To be noted: for selectivity factor (SF) Colo320: IC50 MRC-5/IC50 Colo320; for IC50: MTT, 72 h. The protocol: as §1, §2, §3
In test [3] the test system is normal human embryonal lung fibroblast cells (MRC-5). To be noted: 72 h, read-out: IC50 MRC-5 benign, mean. Here is the method:
as §1, §2, §3

On to `CC(=NNC1=NCc2ccccc2-c2c1[nH]c1ccc(Br)cc21)c1ccc(CN2CCOCC2)cn1.[Cl][Cu][Cl]` [compound 4, CuCl2(HL^4)·0.5H2O], for which, in test [1], the “selectivity factor (SF) Colo205” value turned out to be 1.80 and the IC50 came out at 220 nM. In test [2], the “selectivity factor (SF) Colo320” value was 3.64 and 109 nM corresponded to half-maximal inhibition (IC50). For the same compound, the IC50 in test [3] worked out at 397 nM.
For `CC(=NNc1nc2ccccc2c2c1[nH]c1ccc(Br)cc12)c1ccc(CN2CCOCC2)cn1.[Cl][Cu][Cl]` [compound 8, CuCl2(HL^8)·H2O], in that order: 4.38, 38 nM, 0.30, 547 nM and 165 nM.
